Data reported in the supplement of paper PMC10307832.

How the values were obtained:
Test in all cases: relative viability (nuclei count vs DMSO), 5 days (fraction); higher = more cells survive
17-AAG + Pictilisib = compound: C=CCNC1=C2C[C@@H](C)C[C@H](OC)[C@H](O)[C@@H](C)/C=C(\C)[C@H](OC(N)=O)[C@@H](OC)/C=C\C=C(/C)C(=O)NC(=CC1=O)C2=O [17-AAG] + CS(=O)(=O)N1CCN(Cc2cc3nc(-c4cccc5[nH]ncc45)nc(N4CCOCC4)c3s2)CC1 [Pictilisib] (partner 1 µM)
Procedure, shortened: (§1)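 Relative viability was taken as the ratio of nuclei in treated wells to nuclei in vehicle wells. Lung cancer cell lines in 1536-well plates received compounds by pin tool one day after seeding, either one drug alone or a fixed anchor-drug dose plus five library-drug doses (not always all listed) in √10 steps. Nuclei were counted on 4× images after 5 days of treatment, and values are medians of duplicate plates.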

17-AAG + Crizotinib = compound: C=CCNC1=C2C[C@@H](C)C[C@H](OC)[C@H](O)[C@@H](C)/C=C(\C)[C@H](OC(N)=O)[C@@H](OC)/C=C\C=C(/C)C(=O)NC(=CC1=O)C2=O [17-AAG] + C[C@@H](Oc1cc(-c2cnn(C3CCNCC3)c2)cnc1N)c1c(Cl)ccc(F)c1Cl [Crizotinib] (partner 1 µM)
Procedure, shortened: as §1

17-AAG + Alpelisib = compound: C=CCNC1=C2C[C@@H](C)C[C@H](OC)[C@H](O)[C@@H](C)/C=C(\C)[C@H](OC(N)=O)[C@@H](OC)/C=C\C=C(/C)C(=O)NC(=CC1=O)C2=O [17-AAG] + Cc1nc(NC(=O)N2CCC[C@H]2C(N)=O)sc1-c1ccnc(C(C)(C)C(F)(F)F)c1 [Alpelisib] (partner 2 µM)
Procedure, shortened: as §1

17-AAG + Lapatinib = compound: C=CCNC1=C2C[C@@H](C)C[C@H](OC)[C@H](O)[C@@H](C)/C=C(\C)[C@H](OC(N)=O)[C@@H](OC)/C=C\C=C(/C)C(=O)NC(=CC1=O)C2=O [17-AAG] + CS(=O)(=O)CCNCc1ccc(-c2ccc3ncnc(Nc4ccc(OCc5cccc(F)c5)c(Cl)c4)c3c2)o1 [Lapatinib] (partner 2 µM)
Procedure, shortened: as §1

17-AAG + Bortezomib = compound: C=CCNC1=C2C[C@@H](C)C[C@H](OC)[C@H](O)[C@@H](C)/C=C(\C)[C@H](OC(N)=O)[C@@H](OC)/C=C\C=C(/C)C(=O)NC(=CC1=O)C2=O [17-AAG] + CC(C)C[C@H](NC(=O)[C@H](Cc1ccccc1)NC(=O)c1cnccn1)B(O)O [Bortezomib] (partner 0.002 µM)
Procedure, shortened: as §1

17-AAG + Olaparib = compound: C=CCNC1=C2C[C@@H](C)C[C@H](OC)[C@H](O)[C@@H](C)/C=C(\C)[C@H](OC(N)=O)[C@@H](OC)/C=C\C=C(/C)C(=O)NC(=CC1=O)C2=O [17-AAG] + O=C(c1cc(Cc2n[nH]c(=O)c3ccccc23)ccc1F)N1CCN(C(=O)C2CC2)CC1 [Olaparib] (partner 8 µM)
Procedure, shortened: as §1

17-AAG + Navitoclax = compound: C=CCNC1=C2C[C@@H](C)C[C@H](OC)[C@H](O)[C@@H](C)/C=C(\C)[C@H](OC(N)=O)[C@@H](OC)/C=C\C=C(/C)C(=O)NC(=CC1=O)C2=O [17-AAG] + CC1(C)CCC(c2ccc(Cl)cc2)=C(CN2CCN(c3ccc(C(=O)NS(=O)(=O)c4ccc(N[C@H](CCN5CCOCC5)CSc5ccccc5)c(S(=O)(=O)C(F)(F)F)c4)cc3)CC2)C1 [Navitoclax] (partner 0.5 µM)
Procedure, shortened: as §1

17-AAG + Foretinib = compound: C=CCNC1=C2C[C@@H](C)C[C@H](OC)[C@H](O)[C@@H](C)/C=C(\C)[C@H](OC(N)=O)[C@@H](OC)/C=C\C=C(/C)C(=O)NC(=CC1=O)C2=O [17-AAG] + COc1cc2c(Oc3ccc(NC(=O)C4(C(=O)Nc5ccc(F)cc5)CC4)cc3F)ccnc2cc1OCCCN1CCOCC1 [Foretinib] (partner 0.25 µM)
Procedure, shortened: as §1

17-AAG + Linsitinib = compound: C=CCNC1=C2C[C@@H](C)C[C@H](OC)[C@H](O)[C@@H](C)/C=C(\C)[C@H](OC(N)=O)[C@@H](OC)/C=C\C=C(/C)C(=O)NC(=CC1=O)C2=O [17-AAG] + C[C@]1(O)C[C@@H](c2nc(-c3ccc4ccc(-c5ccccc5)nc4c3)c3c(N)nccn32)C1 [Linsitinib] (partner 1 µM)
Procedure, shortened: as §1

17-AAG = compound: C=CCNC1=C2C[C@@H](C)C[C@H](OC)[C@H](O)[C@@H](C)/C=C(\C)[C@H](OC(N)=O)[C@@H](OC)/C=C\C=C(/C)C(=O)NC(=CC1=O)C2=O [17-AAG]
Procedure, shortened: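 MetaXpress counted nuclei in 4× images of lung cancer cell lines that had been fixed, permeabilised and Hoechst-stained in one step. Before that, cells in 1536-well plates were kept overnight at 37 °C, pinned with five √10-spaced library-drug doses on vehicle-anchored plates, and cultured 5 days without medium change. Viability takes treated-well nuclei over vehicle-well nuclei and uses the median across plates. Plates were accepted only at control CV below 25% and at least one doubling.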

NCI-H1299
relative viability (17-AAG + Pictilisib; first compound 0.00128 µM): 0.802
relative viability (17-AAG + Pictilisib; first compound 0.004048 µM): 0.791
relative viability (17-AAG + Pictilisib; first compound 0.0128 µM): 0.698
relative viability (17-AAG + Pictilisib; first compound 0.04048 µM): 0.151
relative viability (17-AAG + Pictilisib; first compound 0.128 µM): 0.0717
relative viability (17-AAG + Crizotinib; first compound 0.00128 µM): 0.975
relative viability (17-AAG + Crizotinib; first compound 0.004048 µM): 0.932
relative viability (17-AAG + Crizotinib; first compound 0.0128 µM): 0.897
relative viability (17-AAG + Crizotinib; first compound 0.04048 µM): 0.814
relative viability (17-AAG + Crizotinib; first compound 0.128 µM): 0.237
relative viability (17-AAG + Alpelisib; first compound 0.00128 µM): 1.04
relative viability (17-AAG + Alpelisib; first compound 0.004048 µM): 1.05
relative viability (17-AAG + Alpelisib; first compound 0.0128 µM): 1
relative viability (17-AAG + Alpelisib; first compound 0.04048 µM): 0.94
relative viability (17-AAG + Alpelisib; first compound 0.128 µM): 0.729
relative viability (17-AAG + Lapatinib; first compound 0.00128 µM): 0.964
relative viability (17-AAG + Lapatinib; first compound 0.004048 µM): 0.904
relative viability (17-AAG + Lapatinib; first compound 0.0128 µM): 0.924
relative viability (17-AAG + Lapatinib; first compound 0.04048 µM): 0.779
relative viability (17-AAG + Lapatinib; first compound 0.128 µM): 0.416
relative viability (17-AAG + Bortezomib; first compound 0.00128 µM): 1.06
relative viability (17-AAG + Bortezomib; first compound 0.004048 µM): 0.977
relative viability (17-AAG + Bortezomib; first compound 0.0128 µM): 1.01
relative viability (17-AAG + Bortezomib; first compound 0.04048 µM): 0.948
relative viability (17-AAG + Bortezomib; first compound 0.128 µM): 0.665
relative viability (17-AAG + Olaparib; first compound 0.00128 µM): 1.01
relative viability (17-AAG + Olaparib; first compound 0.004048 µM): 0.922
relative viability (17-AAG + Olaparib; first compound 0.0128 µM): 0.965
relative viability (17-AAG + Olaparib; first compound 0.04048 µM): 0.605
relative viability (17-AAG + Olaparib; first compound 0.128 µM): 0.282
relative viability (17-AAG + Navitoclax; first compound 0.00128 µM): 1.04
relative viability (17-AAG + Navitoclax; first compound 0.004048 µM): 1.01
relative viability (17-AAG + Navitoclax; first compound 0.0128 µM): 1.07
relative viability (17-AAG + Navitoclax; first compound 0.04048 µM): 0.952
relative viability (17-AAG + Navitoclax; first compound 0.128 µM): 0.755
relative viability (17-AAG + Foretinib; first compound 0.00128 µM): 1.12
relative viability (17-AAG + Foretinib; first compound 0.004048 µM): 1.03
relative viability (17-AAG + Foretinib; first compound 0.0128 µM): 1.08
relative viability (17-AAG + Foretinib; first compound 0.04048 µM): 1.04
relative viability (17-AAG + Foretinib; first compound 0.128 µM): 0.945
relative viability (17-AAG + Linsitinib; first compound 0.00128 µM): 0.999
relative viability (17-AAG + Linsitinib; first compound 0.004048 µM): 0.922
relative viability (17-AAG + Linsitinib; first compound 0.0128 µM): 0.919
relative viability (17-AAG + Linsitinib; first compound 0.04048 µM): 0.894
relative viability (17-AAG + Linsitinib; first compound 0.128 µM): 0.714
relative viability (17-AAG; 0.00128 µM): 1.01
relative viability (17-AAG; 0.004048 µM): 0.977
relative viability (17-AAG; 0.0128 µM): 0.981
relative viability (17-AAG; 0.04048 µM): 0.931
relative viability (17-AAG; 0.128 µM): 0.538
